Data on four molecules can be found in US20070021421A1 (priority 2005, published 2007).

The test system of one data set is C57BL/6J mice. An excerpt: Since PD, HD, and ALS share aspects of pathogenesis and pathology of motor dysfunction, gait dynamics were also studied in the SOD1 G93A transgenic mouse model of ALS (Gurney et al. Science 1994, 264: 1772-1775) to compare gait variability in mouse models of basal ganglia disease to a mouse model of motor neuron disease. Male C57BL/6J mice (7-8 weeks; ˜22 gm) were purchased from The Jackson Laboratory (Bar Harbor, Me.). Mice transgenic for the mutated human SOD1 G93A (TgN[SOD1-G93A]lGur) (SOD1 G93A) and wild-type human SOD1 (TgN[SOD1]2Gur) (wild-type controls) were purchased from The Jackson Laboratory (Bar Harbor, ME) when the mice were ˜7.5 weeks old. Animals were maintained on a 12-hour light: 12-hour dark schedule with ad libitum access to food and water. Handling and care of mice were consistent with federal guidelines and approved institutional protocols.
MPTP. A mouse model of PD was generated in the following manner. The dopaminergic neurotoxin 1-methyl-4-phenyl-1,2,3,6-tetrahydropyridine (MPTP) (Sigma-Aldrich, St. Louis, Mo.) was dissolved in saline and was administered 30 mg/kg i.p. to 7 mice every 24 hours for 3 days (MPTP-treated mice), based on previously published studies (Colotla et al. Neurotoxicol Teratol 1990, 12: 405-407; Shimoji et al. Brain Res Mol Brain Res 2005, 134:103-108). Equivolume (0.2 ml) of saline was administered i.p. to 7 control mice every 24 hours for 3 days (saline-treated mice).
3NP. A mouse model of HD was generated in the following manner. The mitochondrial toxin 3-nitropropionic acid (3NP) (Sigma-Aldrich, St. Louis, Mo.) was dissolved in saline and was administered 3 times to 6 mice: 25 mg/kg i.p. twice, separated by 12 hours (cumulative dose of 50 mg/kg), then 25 mg/kg 24 hours later (cumulative dose of 75 mg/kg) (3NP-treated mice). Equivolume (0.2 ml) of saline was administered i.p. according to the same schedule to 6 control mice.
(§1) Gait dynamics were recorded using ventral plane videography, as previously described (Kale et al. Alcohol Clin Exp Res 2004, 28: 1839-1848; Hampton et al. Physiol Behav 2004, 82: 381-389). Briefly, a motor-driven treadmill with a transparent treadmill belt was built. A high-speed digital video camera was mounted below the transparent treadmill belt. An acrylic compartment, ˜5 cm wide by ˜25 cm long, the length of which was adjustable, was mounted on top of the treadmill to maintain the mouse that was walking on the treadmill belt within the view of the camera. Digital video images of the underside of mice were collected at 80 frames per second. Accordingly, each image obtained represented a 12.5 ms time interval; and the paw area of each image indicated the temporal placement of the paw relative to the treadmill belt. The color images were converted to their binary matrix equivalents, and the areas (in pixels) of the approaching or retreating paws relative to the belt and camera were calculated throughout each stride. Plotting the area of each digital paw print (paw contact area) imaged sequentially in time provided a dynamic gait signal, representing the temporal record of paw placement relative to the treadmill belt (refer to FIGS. 1A and 1B). From these digital paw print images, indices of gait and gait variability were determined. Each gait signal for each limb comprised a stride duration (stride time), which included the stance duration when the paw of a limb was in contact with the walking surface, plus the swing duration when the paw of the same limb was not in contact with the walking surface. Stance duration was further subdivided into braking duration (increasing paw contact area over time) and propulsion duration (decreasing paw contact area over time) (refer to FIG. 1B).
Stride frequency was calculated by counting the number of gait signals over time. Stride length was calculated from the equation: speed=stride frequency X stride length.

For another data set, the system named is mice. The following applies: cited from earlier work.
The next data set concerns rats. The following applies: MPTP 3 mg/kg; rats (Tsai et al.); cited from earlier work.
A further data set has as its system ALS patients. The following applies: cited from earlier work.
The test system of another data set is SOD1 G93A mice. The experiment in a line: Propranolol in drinking water of the SOD1 G93A mouse model of ALS (gait, walking ability, survival, body weight). The data set is classed as in vivo.
From the text: as §1, with “Briefly,” for “Gait dynamics were recorded using ventral plane videography, as previously described (Kale et al. Alcohol Clin Exp Res 2004, 28: 1839-1848; Hampton et al. Physiol Behav 2004, 82: 381-389). Briefly,”, “Accordingly, each image obtained represented a 12.5 ms time interval; and the paw area of each image indicated the temporal placement of the paw relative to the treadmill belt.” left out
Stride frequency was calculated by counting the number of gait signals over time. Stride length was calculated from the equation: speed=stride frequency X stride length. To obtain stance widths and paw placement angles at full stance, ellipses were fitted to the paws, and the centers, vertices, and major axes of the ellipses were determined. Forelimb and hind limb stance widths were calculated as the perpendicular distance between the major axes of the left and right paw images during peak stance. Gait data were collected and pooled from both the left and right forelimbs, and the left and right hind limbs.
Accordingly, five SOD1 G93A mice were treated with propranolol, the drug having been added to their drinking water beginning at six weeks of age.

Where [1] appears, read: 3NP 75 mg/kg cumulative dose, 34 cm/s, n=3.
[2] abbreviates: 3NP 75 mg/kg cumulative dose, mice that could walk.
The mark [3] stands for this setting: 3NP 75 mg/kg cumulative, two mice with hind limb gait failure, forelimb stepping only.
Where [4] appears, read: after 2nd administration of 3NP (50 mg/kg cumulative).
Where [5] appears, read: cumulative dose of 560 mg/kg of 3NP.
Where [6] appears, read: MPTP 90 mg/kg cumulative dose, 34 cm/s.
Setting [7] is: MPTP after 3 treatments, 34 cm/s.
The mark [8] stands for this setting: MPTP, 3 administrations of 30 mg/kg, 34 cm/s.

The structures appear in SMILES notation. Entries after “also recorded” stand apart in the source; their conditions may differ. Where two headings read alike, the source gives them in different places.

Regarding `O=C(O)CC[N+](=O)[O-]` [3NP, 3-nitropropionic acid], the “stride length” value in the data set with C57BL/6J mice (3NP 75 mg/kg cumulative dose i.p., 34 cm/s, n=3 mice that could walk) was determined as 7.3 ± 0.1 cm. In addition, in the data set on C57BL/6J mice (setting [1]), the “% Stance Duration” value is 59.4±2.3%, the “% Swing Duration” value came to 40.6±2.3%, the “Forelimb Paw Placement Angle” value is given as 3.5 ± 1.1 ° and the “Forelimb Stance Width” value was 1.7 ± 0.1 cm. Also, in the data set on C57BL/6J mice (setting [1]), the “Hind limb Paw Placement Angle” value was found to be 15.2±1.0 °, the “Hind limb Stance Width” value is listed as 2.8±0.2 cm, the “Stride Duration” value was found to be 217 ± 5 ms and the “Stride Frequency” value was determined as 4.9 ± 0.1 Hz. Further, the “percentage of stance duration spent in propulsion (propulsion/stance) of the hind limbs” value with C57BL/6J mice (setting [1]) turned out to be 45.2±2.5%. In the data set with C57BL/6J mice (setting [2]), the “CV of forelimb stance width” value stood at 17.3±2.4%, the “CV of forelimb stride length” value worked out at 17.9±1.6% and the “Stance width variability of the forelimbs” value is 0.31±0.04 cm. Further, the “Hind limb stride length variability and hind limb stance width variability” value with C57BL/6J mice (3NP 75 mg/kg cumulative dose, mice that could walk, vs saline-treated mice) was “not different”. Also, the “Stride length variability of the forelimbs” value in the data set with C57BL/6J mice (3NP 75 mg/kg cumulative dose, three mice that could walk) was 1.31±0.09 cm. In addition, in the data set on C57BL/6J mice (setting [3]), the “stance duration (forelimbs)” value was 133 ± 5 ms, the “stride frequency (forelimbs)” value is on record as 5.0±0.1 Hz and the “stride length of forelimbs” value is given as 7.1±0.1 cm. For the same molecule, the “Stride length, stride frequency, stance duration, and swing duration” value in the data set with C57BL/6J mice (after 1st and 2nd administrations of 25 mg/kg 3NP) is listed as “not affected”. Further, in the data set with C57BL/6J mice (setting [4]), the “CV of forelimb stance width” value was 15.0±1.2%; the “Stance width variability of the forelimbs” value came to 0.28±0.01 cm; the “stride length variability and stance width variability of the hind limbs” value is recorded as “Neither stride length variability nor stance width variability of the hind limbs was affected”. The “paw placement angle of the hind limbs” value in the data set on C57BL/6J mice (after 2nd administration of 3NP (cumulative dose of 50 mg/kg), n=6) was 16.6±1.2 °. The “3NP-treated mice that could not walk on the treadmill belt” value in the data set on C57BL/6J mice (after 3rd administration (75 mg/kg cumulative dose), 34 cm/s, 6 mice) is recorded as “half”. Moreover, in the data set with C57BL/6J mice (aggressive (higher) doses of 3NP, data not shown), the “effect of aggressive doses” value is “high mortality or the inability of the mice to walk at all on the treadmill belt”. For the same molecule, in the data set with mice (setting [5]), the forelimb stride length result is listed as “comparable to saline-treated mice” and the “hind limb stride length” value is reported as “shortened”. For the same molecule, the “stride length of forelimbs and hind limbs” value with mice (cumulative dose of 3NP 340 mg/kg) is “no differences”.
For the molecule `CN1CC=C(c2ccccc2)CC1` [MPTP, 1-methyl-4-phenyl-1,2,3,6-tetrahydropyridine], in the data set with C57BL/6J mice (setting [6]), the “Forelimb Paw Placement Angle” value was 2.6 ± 0.4 °, the “Forelimb Stance Width” value was 1.6 ± 0.1 cm, the “Hind limb Paw Placement Angle” value is on record as 10.8 ± 1.3 ° and the “Hind limb Stance Width” value was determined as 2.2 ± 0.1 cm. In addition, the “Stride Duration” value in the data set on C57BL/6J mice (MPTP 90 mg/kg cumulative dose, 34 cm/s, n=7) is 194 ± 1 ms. In addition, the “% Stance Duration” value with C57BL/6J mice (MPTP 90 mg/kg cumulative dose, 34 cm/s, stance/stride) came to 55.9 ± 1.1%. Further, in the data set with C57BL/6J mice (MPTP 90 mg/kg cumulative dose, 34 cm/s, swing/stride), the “% Swing Duration” value stood at 44.1 ± 1.1%. For the same molecule, in the data set with C57BL/6J mice (setting [7]), the “CV of forelimb stance width” value turned out to be 16.7±1.3%, the “CV of hind limb stance width” value is recorded as 9.1±1.1%, the “Stance width variability of the forelimbs” value came out at 0.26±0.01 cm and the “Stance width variability of the hind limbs” value was 0.20±0.02 cm. Besides, the “coefficient of variation (CV) of forelimb stride length” value in the data set with C57BL/6J mice (setting [7]) worked out at 13.6±0.8%. Also, the “CV of hind limb stride length” value in the data set with C57BL/6J mice (MPTP after 3 treatments, 34 cm/s, NS vs saline) came to 10.0±1.5%. In addition, the “Stride length variability of the forelimbs” value in the data set with C57BL/6J mice (MPTP after 3 treatments, standard deviation, 34 cm/s) amounted to 0.91±0.04 cm. The “Stride length variability of the hind limbs” value in the data set on C57BL/6J mice (MPTP after 3 treatments, vs saline-treated mice) was “not different”. Moreover, in the data set with C57BL/6J mice (setting [8]), the “stance duration of the forelimbs” value amounted to 116 ± 2 ms and the “swing duration of the hind limbs” value amounted to 92 ± 3 ms. Moreover, in the data set with rats, the stride length entry is “significantly reduce stride length”.
For the molecule `Nc1nc2ccc(OC(F)(F)F)cc2s1` [Riluzole], the side effects entry in the data set on ALS patients was “causes liver damage”.
Turning to `CC(C)NCC(O)COc1cccc2ccccc12` (centres unmarked) [propranolol], in the data set with SOD1 G93A mice (age 12 weeks through 18 weeks), the “increase in paw placement angle variability with disease progression” value is on record as “blunted or prevented; also recorded: prevented or diminished”. Besides, the “extent of gait disturbances” value with SOD1 G93A mice (propranolol in drinking water from age ~42 days, five mice) was “mitigated and delayed”. For the same molecule, the stride length entry in the data set with SOD1 G93A mice (propranolol in drinking water, vs longer strides with untreated tap water) is on record as “more normal”. In addition, the body weight result in the data set with SOD1 G93A mice (relative to tap water-treated control mice, FIG. 8) is on record as “reduction in body weight”. In addition, the “mice that could successfully walk on a moving treadmill belt” value in the data set with SOD1 G93A mice (~16 weeks of age, tap water controls one out of five) is “three out of five”. In the data set on SOD1 G93A mice (~age 17 weeks, five mice per group, tap water controls one), this molecule gave a mice surviving of 3.
